Test results as given in patent US8492371B2, “Compounds as cannabinoid receptor ligands” (priority 2009, dated 2013).
Read-outs that look alike come from different tables or passages of the source.

Key:
[1] = target: T1, human CB2 receptors (Homo sapiens, UniProt P34972); assay: Human CB2 radioligand binding assay ([3H]CP-55,940 competition)
T1 construct: expressed in transfected cells; host or cells: HEK293
Procedure, shortened: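 Membranes from HEK293 cells stably expressing human CB2 (5 μg/well) incubated 90 min at 30 °C with 0.5 nM [3H]CP-55,940 and five concentrations of displacer (0.01 nM–10 μM) in pH 7.4 Tris/EDTA/MgCl2 buffer with fatty acid free BSA. Bound radioactivity counted after filtration; nonspecific binding defined with 10 μM unlabeled CP-55,940.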

[2] = target: T2, rat CB2 receptors (Rattus norvegicus, UniProt Q9QZN9); assay: Rat CB2 radioligand binding assay ([3H]CP-55,940 competition)
T2 construct: expressed in transfected cells; host or cells: HEK293
T2 sequence (Q9QZN9 1-360): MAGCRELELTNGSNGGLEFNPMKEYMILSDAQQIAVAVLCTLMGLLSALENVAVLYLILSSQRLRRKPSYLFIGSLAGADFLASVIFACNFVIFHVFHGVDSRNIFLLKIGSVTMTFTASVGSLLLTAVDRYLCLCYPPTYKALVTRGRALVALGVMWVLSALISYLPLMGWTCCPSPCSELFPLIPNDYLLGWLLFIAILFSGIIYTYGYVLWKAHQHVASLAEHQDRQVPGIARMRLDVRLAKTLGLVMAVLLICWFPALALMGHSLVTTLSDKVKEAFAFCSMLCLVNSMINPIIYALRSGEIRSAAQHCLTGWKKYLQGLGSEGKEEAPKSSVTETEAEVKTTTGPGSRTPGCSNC
Procedure, shortened: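 Membranes from HEK293 cells stably expressing rat CB2 (20 μg/well) incubated 45 min at 30 °C with 0.5 nM [3H]CP-55,940 and five competitor concentrations in Tris/EDTA/MgCl2 buffer with 0.5 mg/mL BSA, pH 7.4. Filtration and scintillation counting; nonspecific binding with 10 μM unlabeled CP-55,940.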

[3] = HEK293 membranes, 0.5 nM [3H]CP-55,940, read-out: human CB2 Ki

T1 sequence (P34972 whole entry): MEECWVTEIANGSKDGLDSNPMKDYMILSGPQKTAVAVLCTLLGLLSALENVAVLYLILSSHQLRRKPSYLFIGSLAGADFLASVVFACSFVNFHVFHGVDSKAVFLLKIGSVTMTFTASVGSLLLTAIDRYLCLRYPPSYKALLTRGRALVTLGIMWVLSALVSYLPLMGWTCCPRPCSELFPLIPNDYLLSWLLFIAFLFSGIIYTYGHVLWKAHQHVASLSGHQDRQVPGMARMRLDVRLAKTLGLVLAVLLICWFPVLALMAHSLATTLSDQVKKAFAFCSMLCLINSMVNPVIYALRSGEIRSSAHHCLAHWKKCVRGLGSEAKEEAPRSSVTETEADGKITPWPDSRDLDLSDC

Structure (SMILES) | Ki [1] [nM] | Ki [2] [nM] | Ki [1, 3] [nM] | Ki ([2]; HEK293 membranes, 0.5 nM [3H]CP-55,940, read-out: rat CB2 Ki) [nM]
COc1ccc(C(F)(F)F)cc1C(=O)/N=c1\cc(C(C)(C)C)ccn1C[C@H]1CCCO1 [Example 62, N-[(2E)-4-tert-butyl-[(2R)-tetrahydrofuran-2-ylmethyl]pyridin-2(1H)-ylidene]-2-methoxy-5-(trifluoromethyl)benzamide] | 20 | 4 |  | 
COc1ccc(Cl)cc1C(=O)/N=c1\cc(C(C)(C)C)on1C[C@H]1CCCO1 [Example 11, N-[(3E)-5-tert-butyl-2-[(2R)-tetrahydrofuran-2-ylmethyl]isoxazol-3(2H)-ylidene]-5-chloro-2-methoxybenzamide] | 4.8 | 2.6 |  | 
C#CC(C)(C)c1nn(C[C@H]2CCCO2)/c(=N/C(=O)c2cc(Cl)ccc2OC)s1 [Example 6, 5-chloro-N-[(2Z)-5-(1,1-dimethylprop-2-ynyl)-3-[(2R)-tetrahydrofuran-2-ylmethyl]-1,3,4-thiadiazol-2(3H)-ylidene]-2-methoxybenzamide] | 20 | 3.3 |  | 
CO[C@@H](C)COc1ccc(C(F)(F)F)cc1C(=O)/N=c1\cc(C(C)(C)C)n(C)n1C[C@H]1CCCO1 [Example 28, N-{(3E)-5-tert-butyl-1-methyl-2-[(2R)-tetrahydrofuran-2-ylmethyl]-1,2-dihydro-3H-pyrazol-3-ylidene}-2-{[(2S)-2-methoxypropyl]oxy}-5-(trifluoromethyl)benzamide] | 101 | 44 |  | 
Cn1c(C(C)(C)C)c/c(=N\C(=O)c2cc(O)cc(C(F)(F)F)c2)n1C[C@H]1CCCO1 [Example 103, N-{(3E)-5-tert-butyl-1-methyl-2-[(2R)-tetrahydrofuran-2-ylmethyl]-1,2-dihydro-3H-pyrazol-3-ylidene}-3-hydroxy-5-(trifluoromethyl)benzamide] | 16 | 4.4 |  | 
CC(C)=CCOc1ccc(C(F)(F)F)cc1C(=O)/N=c1\cc(C(C)(C)C)n(C)n1C[C@H]1CCCO1 [Example 93, N-{(3E)-5-tert-butyl-1-methyl-2-[(2R)-tetrahydrofuran-2-ylmethyl]-1,2-dihydro-3H-pyrazol-3-ylidene}-2-[(3-methylbut-2-enyl)oxy]-5-(trifluoromethyl)benzamide] | 17 | 15 |  | 
COc1c(F)cc(F)cc1C(=O)/N=c1\cc(C(C)(C)C)n(C)n1C[C@H]1CCCO1 [Example 55, N-{(3E)-5-tert-butyl-1-methyl-2-[(2R)-tetrahydrofuran-2-ylmethyl]-1,2-dihydro-3H-pyrazol-3-ylidene}-3,5-difluoro-2-methoxybenzamide] |  |  | 152 | 143
Cn1c(C(C)(C)C)c/c(=N\C(=O)c2cc([N+](=O)[O-])cc(C(F)(F)F)c2)n1C[C@H]1CCCO1 [Example 106, N-{(3E)-5-tert-butyl-1-methyl-2-[(2R)-tetrahydrofuran-2-ylmethyl]-1,2-dihydro-3H-pyrazol-3-ylidene}-3-nitro-5-(trifluoromethyl)benzamide] |  | 63 | 168 | 
COc1ccc(C(F)(F)F)cc1C(=O)/N=c1\oc(C(C)(C)C)cn1C[C@H]1CCCO1 [Example 66, N-[(2Z)-5-tert-butyl-3-[(2R)-tetrahydrofuran-2-ylmethyl]-1,3-oxazol-2(3 H)-ylidene]-2-methoxy-5-(trifluoromethyl)benzamide] | 2.1 | 0.8 |  | 
COc1ccc(C(F)(F)F)cc1C(=O)/N=c1\cc(C(C)(C)C)n(C)n1CC1CC[C@H](C)O1 (stereo partly shown) [Example 65, N-((3E)-5-tert-butyl-1-methyl-2-{[(55)-5-methyltetrahydrofuran-2-yl]methyl}-1,2-dihydro-3H-pyrazol-3-ylidene)-2-methoxy-5-(trifluoromethyl)benzamide] | 65 | 5.7 |  | 
Cn1c(C(C)(C)C)c/c(=N\C(=O)c2cc(C(F)(F)F)ccc2OCC2CC(=O)C2)n1C[C@H]1CCCO1 [Example 17, N-{(3E)-5-tert-butyl-1-methyl-2-[(2R)-tetrahydrofuran-2-ylmethyl]-1,2-dihydro-3H-pyrazol-3-ylidene}-2-[(3-oxocyclobutyl)methoxy]-5-(trifluoromethyl)benzamide] |  | 58 | 230 | 
Cn1c(C(C)(C)C)c/c(=N\C(=O)c2cc(C(F)(F)F)ccc2Oc2ccccc2)n1C[C@H]1CCCO1 [Example 133, N-{(3E)-5-tert-butyl-1-methyl-2-[(2R)-tetrahydrofuran-2-ylmethyl]-1,2-dihydro-3H-pyrazol-3-ylidene}-2-phenoxy-5-(trifluoromethyl)benzamide] | 107 | 39 |  | 
Cn1c(C(C)(C)C)c/c(=N\C(=O)c2cc(F)cc(C(F)(F)F)c2)n1C[C@H]1CCCO1 [Example 96, N-{(3E)-5-tert-butyl-1-methyl-2-[(2R)-tetrahydrofuran-2-ylmethyl]-1,2-dihydro-3H-pyrazol-3-ylidene}-3-fluoro-5-(trifluoromethyl)benzamide] | 13 | 3.7 |  | 
COC(=O)c1cccc(C(=O)/N=c2\cc(C(C)(C)C)n(C)n2C[C@H]2CCCO2)c1 [Example 115] | 25 | 5.4 |  | 
CCOCCCOc1ccc(C(F)(F)F)cc1C(=O)/N=c1\cc(C(C)(C)C)n(C)n1C[C@H]1CCCO1 [Example 29, N-{(3E)-5-tert-butyl-1-methyl-2-[(2R)-tetrahydrofuran-2-ylmethyl]-1,2-dihydro-3H-pyrazol-3-ylidene}-2-(3-ethoxypropoxy)-5-(trifluoromethyl)benzamide] | 4.8 | 14 |  | 
COc1ccc(Cl)cc1C(=O)/N=c1\cc(C(C)(C)C)ccn1C[C@H]1CCCO1 [Example 61, N-[(2E)-4-tert-butyl-1-[(2R)-tetrahydrofuran-2-ylmethyl]pyridin-2(1H)-ylidene]-5-chloro-2-methoxybenzamide] |  | 13 | 103 | 
C=Cc1ccc(C(F)(F)F)cc1C(=O)/N=c1\cc(C(C)(C)C)n(C)n1C[C@H]1CCCO1 [Example 122, N-{(3E)-5-tert-butyl-1-methyl-2-[(2R)-tetrahydrofuran-2-ylmethyl]-1,2-dihydro-3H-pyrazol-3-ylidene}-5-(trifluoromethyl)-2-vinylbenzamide] | 8.2 | 1.4 |  | 
COc1ccc(C(F)(F)F)cc1C(=O)/N=c1\cc(C2(C)CC2)n(C)n1C[C@H]1CCCO1 [Example 33, 2-methoxy-N-{(3E)-1-methyl-5-(1-methylcyclopropyl)-2-[(2R)-tetrahydrofuran-2-ylmethyl]-1,2-dihydro-3H-pyrazol-3-ylidene}-5-(trifluoromethyl)benzamide] | 81 | 14 |  | 
Cn1c(C(C)(C)C)c/c(=N\C(=O)c2cc(C(F)(F)F)ccc2O)n1C[C@H]1CCCO1 [Example 24, N-{(3E)-5-tert-butyl-1-methyl-2-[(2R)-tetrahydrofuran-2-ylmethyl]-1,2-dihydro-3H-pyrazol-3-ylidene}-2-hydroxy-5-(trifluoromethyl)benzamide] |  | 29 | 260 | 
Cn1c(C(C)(C)C)c/c(=N\C(=O)c2cc(N)cc(C(F)(F)F)c2)n1C[C@H]1CCCO1 [Example 107, 3-amino-N-{(3E)-5-tert-butyl-1-methyl-2-[(2R)-tetrahydrofuran-2-ylmethyl]-1,2-dihydro-3H-pyrazol-3-ylidene}-5-(trifluoromethyl)benzamide] | 11 | 4.8 |  | 
